Test results from patent US20220220106A1, “QUINOLINE COMPOUNDS AND PHARMACEUTICAL COMPOSITIONS AND USES THEREOF” (Academy of Military Medical Sciences, priority 2019, published 2022).

What was measured:
RD cells = experiment: Detection of cytotoxicity in RD cells (CellTiter-Glo); type: cell-based; conditions: for TD50: 4 days, CellTiter-Glo, median toxic dose
How it was run: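 RD cells (1*10^5/mL) cultured 4 days at 37 °C with 10 compound concentrations from 3-fold dilution of a 400 μM pretreatment solution, final being 0.5 times that. Viability by CellTiter-Glo luminescence versus cell control; TD50 from S-curve fit; SI=TD50/IC50.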

mTORC2 = molecular target: T1, mTORC2 (Homo sapiens, UniProt P42345); experiment: Western blot, phosphorylation of Ser473 of Akt in RD cells (mTORC2 inhibition); type: cell-based; conditions: 20 μM, 2 hours, Western blot (FIG. 1)
T1 construct: endogenous in cells; host or cells: RD cells
Description: In order to test the inhibitory activity of the synthesized compounds on the two mTOR complexes, the inhibitory activity experiments of mTORC1 and mTORC2 were carried out. Since mTORC1 and mTORC2 exerted their function by activating the phosphorylation of downstream substrates, the inhibitory activity of the compounds on mTORC1 and mTORC2 could be determined by detecting the phosphorylation levels of the Thr389 site of mTORC1 downstream substrate p70S6K1 and the Ser473 site of mTORC2 downstream substrate Akt.
Pretreatment of Compound:
(1) RD cells were cultured in DMEM medium containing 10% FBS and 1×PS (penicillin and streptomycin were at concentrations 100 IU and 100 μg/mL, respectively) at 37° C. and 5% CO2.
(2) The RD cells (5×10^5 cells/2 mL medium) were inoculated into a 6-well plate and incubated at 37° C. and 5% CO2 for 24 hours.
(3) The cells were washed once with PBS, and the cells were cultured in serum-free medium without nutrients overnight.
(4) Formulation of compounds: […]
Preparation of insulin medium: Insulin was diluted in DMEM medium containing 10% FBS and 1×PS so that the final concentration of insulin was 167 nM.
Pretreatment of compound to be tested: The compound was dissolved in DMSO so that the concentration of the test compound was 20 mM, and the compound was diluted in 167 nM insulin medium to reach a concentration of 20 μM.
Preparation of rapamycin solution: Rapamycin was dissolved in DMSO to a concentration of 10 mM, and the rapamycin was diluted in 167 nM insulin medium to reach a concentration of 20 μM.
(5) The serum-free medium in each well was removed.
(6) 2 mL of complete medium containing DMSO was added to each well as a control carrier. The final concentration of DMSO was 0.2%.
(7) 2 mL of 20 μM rapamycin solution and 20 μM the compound to be tested were added to the designated wells, respectively. The final concentration of DMSO was 0.2%.
(8) The cells were incubated for 2 hours at 37° C. and 5% CO2.
Protein extraction and concentration determination:
(1) The cells were washed once with refrigerated PBS, and then the PBS was discarded.
(2) 150 μL of cell extraction buffer (RIPA, […], catalog number: C1053) was transferred into each well to lyse the cells, and then the resulting cell solution were incubated on ice for 30 minutes.
(3) Centrifugation was performed at 14000 rpm (13000× g) for 30 minutes at 4° C.
(4) The supernatant was transferred into a new eppendorf tube, and the cell lysate was stored at −80° C. before testing.
(5) The protein concentration was determined by BCA method.
Preparation of Buffer Solutions:
(1) 100× Protease inhibitor (Beyotime, catalog number: P1005): 1 mL of redistilled water was added to the protease inhibitor and stirred gently until the solid was completely dissolved.
(2) Lysis Buffer: […] of 100× protease inhibitor and 2× phosphatase inhibitor Cocktails PhosSTOP (Beyotime, catalog number: P1082) were added to 100 mL of the cell extract, and stirred gently until it was completely dissolved.
(3) Electrophoresis Running Buffer:
10×MOPS buffer: 52.33 g of MOPS, 30.29 g of Tris base, 10 mL of 0.5 mol/L EDTA (pH 8.5) and 5 g of SDS was dissolved in 400 mL of redistilled water, stirred to dissolve, and the pH was adjusted to 7.5, then redistilled water was added again to reach a volume of 500 mL; 1×MOPS: 100 mL of 10×MOPS was diluted with redistilled water to 1000 mL.
(4) 1× Transfer Buffer: […] of 10× transfer buffer (144 g of glucine, 30.3 g of trisbase, and distilled water were mixed to reach a volume of 1 L) and 400 mL of methanol were dissolved in 1500 mL of redistilled water, and then the redistilled water was added to reach a volume of 2000 mL. […]

Row | Structure (SMILES) | TD50 (RD cells) | phosphorylation expression level of Akt (mTORC2) | toxicity, in words (RD cells)
1 | O=C1Cc2cc(-c3ccc4ncc5ccc(=O)n(-c6cccc(C(F)(F)F)c6)c5c4c3)ccc2N1 [HTL-7-04, 9-[5-(2-oxo)indolyl]-2-oxo-1-[3-(trifluoromethyl)phenyl]-1,2-dihydrobenzo[h][1,6]naphthyridine] | 10.27 ± 7.81 µM | significantly down-regulate | –
2 | O=C(Nc1ccc(-c2ccc3ncc4ccc(=O)n(-c5cccc(C(F)(F)F)c5)c4c3c2)cn1)Oc1ccccc1 [HTL-7-15, 9-[3-(6-phenoxyamido)pyridyl]-2-oxo-1-[3-(trifluoromethyl)phenyl]-1,2-dihydrobenzo[h][1,6]naphthyridine] | 0.20 ± 0.09 µM | significantly down-regulate | –
3 | O=C(Nc1ccc(-c2ccc3ncc4ccc(=O)n(-c5cccc(C(F)(F)F)c5)c4c3c2)cn1)OCc1ccccc1 [HTL-7-14, 9-[3-(6-benzyloxyamido)pyridyl]-2-oxo-1-[3-(trifluoromethyl)phenyl]-1,2-dihydrobenzo[h][1,6]naphthyridine] | 1.00 ± 0.81 µM | significantly down-regulate | –
4 | NC(=O)/C=C/c1ccc2ncc3oc(=O)n(-c4cccc(C(F)(F)F)c4)c3c2c1 [HTL-6-30, (E)-8-(2-carbamoyl-vinyl)-1-[3-(trifluoromethyl)phenyl]oxazolo[5,4-c]quinolin-2(1H)-one] | 7 ± 0.09 µM | – | –
5 | CC(=O)/C=C/c1cnc2ccc(-c3ccc(C)nc3)cc2c1Nc1cccc(C(F)(F)F)c1 [HTL-2-38, (E)-6-[3-(6-methyl)pyridyl]-4-[3-(trifluoromethyl)phenyl]aminoquinoline-3-butenone] | 8.71 ± 1.53 µM | – | –
6 | NC(=O)c1ccc(-c2ccc3ncc4oc(=O)n(-c5cccc(C(F)(F)F)c5)c4c3c2)cc1 [HTL-5-21, 8-(4-carbamoyl)phenyl-1-[3-(trifluoromethyl)phenyl]oxazolo[5,4-c]quinolin-2(1H)-one] | 6.95 ± 1.23 µM | significantly down-regulate | –
7 | O=c1ccc2cnc3ccc(-c4cccnc4F)cc3c2n1-c1cccc(C(F)(F)F)c1 [HTL-6-48, 9-[3-(2-fluoro)pyridyl]-2-oxo-1-[3-(trifluoromethyl)phenyl]-1,2-dihydrobenzo [h][1,6]naphthyridine] | 1.23 ± 1.20 µM | significantly down-regulate | relatively low toxicity
8 | O=C(Cc1ccccc1)Nc1ccc(-c2ccc3ncc4ccc(=O)n(-c5cccc(C(F)(F)F)c5)c4c3c2)cn1 [HTL-7-10, 9-[3-(6-phenylacetylamino)pyridyl]-2-oxo-1-[3-(trifluoromethyl)phenyl]-1,2-dihydrobenzo[h][1,6]naphthyridine] | 0.74 ± 0.72 µM | significantly down-regulate | –
9 | O=c1ccc2cnc3ccc(C4=CCC5(CC4)OCCO5)cc3c2n1-c1cccc(C(F)(F)F)c1 [HTL-7-13, 9-(1,4-dioxa-spiro[4.5]dec-7-en-8-yl)-2-oxo-1-[3-(trifluoromethyl)phenyl]-1,2-dihydrobenzo[h][1,6]naphthyridine] | 200 ± 0 µM | significantly down-regulate | –
10 | O=c1ccc2cnc3ccc(-c4ccc(N5CCOCC5)nc4)cc3c2n1-c1cccc(C(F)(F)F)c1 [HTL-7-18, 9-[3-(6-morpholin-4-yl)pyridyl]-2-oxo-1-[3-(trifluoromethyl)phenyl]-1,2-dihydrobenzo[h][1,6]naphthyridine] | 2.91 ± 1.16 µM | significantly down-regulate | –
11 | Nc1cccc(Nc2ccc3ncc4ccc(=O)n(-c5cccc(C(F)(F)F)c5)c4c3c2)n1 [HTL-6-12, 9-[2-(6-aminopyridyl)]imino-2-oxo-1-[3-(trifluoromethyl)phenyl]-1,2-dihydrobenzo[h][1,6]naphthyridine] | 5.19 ± 0.56 µM | significantly down-regulate | –
12 | CCCC(=O)Nc1ccc(-c2ccc3ncc4ccc(=O)n(-c5cccc(C(F)(F)F)c5)c4c3c2)cn1 [HTL-7-05, 9-[3-(6-butyrylamino)pyridyl]-2-oxo-1-[3-(trifluoromethyl)phenyl]-1,2-dihydrobenzo[h][1,6]naphthyridine] | 0.75 ± 0.36 µM | significantly down-regulate | –
13 | COc1cc(-c2ccc3ncc4ccc(=O)n(-c5cccc(C(F)(F)F)c5)c4c3c2)cnc1N [HTL-7-19, 9-[3-(6-amino-5-methoxy)pyridyl]-2-oxo-1-[3-(trifluoromethyl)phenyl]-1,2-dihydrobenzo[h][1,6]naphthyridine] | 0.06 ± 0.02 µM | significantly down-regulate | –
14 | O=c1ccc2cnc3ccc(-c4cc[nH]n4)cc3c2n1-c1cccc(C(F)(F)F)c1 [HTL-6-50, 9-[(1H)-3-pyrazolyl]-2-oxo-1-[3-(trifluoromethyl)phenyl]-1,2-dihydrobenzo[h][1,6]naphthyridine] | 0.17 ± 0.05 µM | significantly down-regulate | –
15 | CN(C)c1ccc(-c2ccc3ncc4ccc(=O)n(-c5cccc(C(F)(F)F)c5)c4c3c2)cn1 [HTL-7-16, 9-[3-(6-N,N-dimethyl)pyridyl]-2-oxo-1-[3-(trifluoromethyl)phenyl]-1,2-dihydrobenzo[h][1,6]naphthyridine] | 0.17 ± 0.06 µM | significantly down-regulate | –
16 | O=c1ccc2cnc3ccc(-c4ccc(N5CCCC5)nc4)cc3c2n1-c1cccc(C(F)(F)F)c1 [HTL-7-20, 9-[3-(6-pyrrolidinyl)pyridyl]-2-oxo-1-[3-(trifluoromethyl)phenyl]-1,2-dihydrobenzo[h][1,6]naphthyridine] | 1.79 ± 0.67 µM | significantly down-regulate | –
17 | COc1ccc(CC(=O)Nc2ccc(-c3ccc4ncc5ccc(=O)n(-c6cccc(C(F)(F)F)c6)c5c4c3)cn2)cc1 [HTL-7-11, 9-{3-[6-(4-methoxy)phenylacetylamino]pyridyl}-2-oxo-1-[3-(trifluoromethyl)phenyl]-1,2-dihydrobenzo[h][1,6]naphthyridine] | 0.19 ± 0.10 µM | significantly down-regulate | –
18 | CCCCC(=O)Nc1ccc(-c2ccc3ncc4ccc(=O)n(-c5cccc(C(F)(F)F)c5)c4c3c2)cn1 [HTL-7-08, 9-[3-(6-valerylamino)pyridyl]-2-oxo-1-[3-(trifluoromethyl)phenyl]-1,2-dihydrobenzo[h][1,6]naphthyridine] | 0.70 ± 0.48 µM | significantly down-regulate | –
19 | CCC(=O)Nc1ccc(-c2ccc3ncc4ccc(=O)n(-c5cccc(C(F)(F)F)c5)c4c3c2)cn1 [HTL-6-45, 9-[3-(6-propionylamino)pyridyl]-2-oxo-1-[3-(trifluoromethyl)phenyl]-1,2-dihydrobenzo[h][1,6]naphthyridine] | 0.04 ± 0.02 µM | significantly down-regulate | –
20 | O=c1ccc2cnc3ccc(-c4ccc5ncccc5c4)cc3c2n1-c1cccc(C(F)(F)F)c1 [HTL-6-47, 9-(6-quinolyl)-2-oxo-1-[3-(trifluoromethyl)phenyl]-1,2-dihydrobenzo[h][1,6]naphthyridine] | 0.03 ± 0.02 µM | significantly down-regulate | –
